Measured values published in patent US11661426B2, “Imidazole-containing inhibitors of ALK2 kinase” (BioCryst Pharmaceuticals, Inc., priority 2017, dated 2023).
pIC50: −log10 of the molar value.

The compounds below were run against ALK2 (Homo sapiens (Human), UniProt Q04771) (assay: ALK2 inhibition, LanthaScreen Eu Kinase Binding Assay (ThermoFisher Scientific / Life Technologies)). Settings: read-out: Measured Ki (IC50) Value for Compounds: IC50.
ALK2, sequence (Q04771 21-509): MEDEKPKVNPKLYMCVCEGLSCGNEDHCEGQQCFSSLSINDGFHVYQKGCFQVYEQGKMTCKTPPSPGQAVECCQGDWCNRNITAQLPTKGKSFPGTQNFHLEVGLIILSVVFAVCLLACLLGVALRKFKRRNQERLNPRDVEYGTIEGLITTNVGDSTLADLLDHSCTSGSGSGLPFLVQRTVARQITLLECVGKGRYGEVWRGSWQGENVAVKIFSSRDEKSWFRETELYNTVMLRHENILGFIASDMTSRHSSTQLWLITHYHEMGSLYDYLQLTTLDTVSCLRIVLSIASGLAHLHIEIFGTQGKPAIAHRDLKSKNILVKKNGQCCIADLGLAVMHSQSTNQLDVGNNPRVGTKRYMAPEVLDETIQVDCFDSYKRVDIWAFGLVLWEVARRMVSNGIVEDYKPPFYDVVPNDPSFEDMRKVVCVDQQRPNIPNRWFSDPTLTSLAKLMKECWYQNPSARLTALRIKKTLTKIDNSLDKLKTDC
Description: Biochemical assays to measure the inhibitory effects of the compounds were performed by ThermoFisher Scientific (Life Technologies). ALK2 inhibition was tested using LanthaScreen™ Eu Kinase Binding Assay screening protocol.
`COc1cc(-n2cnc(Nc3nc(N4CCC[C@H]4CO)nc4c3cnn4CC3CCCCC3)c2)cc(OC)c1OC` [Compound 453d, (S)-(1-(1-(cyclohexylmethyl)-4-((1-(3,4,5-trimethoxyphenyl)-1H-imidazol-4-yl)amino)-1H-pyrazolo[3,4-d]pyrimidin-6-yl)pyrrolidin-2-yl)methanol] was tested, and the pIC50 was > 7.00.
In the case of `COc1cc(-n2cnc(Nc3nc(N4CCC[C@H]4CO)c4c(C)nn(C5CCOCC5)c4n3)c2)cc(OC)c1OC` [Compound 454c, (S)-(1-(3-methyl-1-(tetrahydro-2H-pyran-4-yl)-6-((1-(3,4,5-trimethoxyphenyl)-1H-imidazol-4-yl)amino)-1H-pyrazolo[3,4-d]pyrimidin-4-yl)pyrrolidin-2-yl)methanol], the pIC50 was > 7.00.
`OC[C@@H]1CCCN1c1nc(Nc2nccs2)c2cccn2n1` [Compound 455c, (S)-(1-(4-(thiazol-2-ylamino)pyrrolo[2,1-f][1,2,4]triazin-2-yl)pyrrolidin-2-yl)methanol] was tested, and the pIC50 was 6.00 to 7.00.
In the case of `COC(=O)c1cnc(Nc2nc(N3CCC[C@H]3CO)nn3cccc23)s1` [Compound 455d, (S)-methyl 2-((2-(2-(hydroxymethyl)pyrrolidin-1-yl)pyrrolo[2,1-f][1,2,4]triazin-4-yl)amino)thiazole-5-carboxylate], the pIC50 was < 6.00.
`COc1cc(-n2cnc(Nc3nc(N4CCC[C@H]4CO)c4c(C)nn(C(C)C)c4n3)c2)cc(OC)c1OC` [Compound 456c, (S)-(1-(1-isopropyl-3-methyl-6-((1-(3,4,5-trimethoxyphenyl)-1H-imidazol-4-yl)amino)-1H-pyrazolo[3,4-d]pyrimidin-4-yl)pyrrolidin-2-yl)methanol] was tested, and the pIC50 was > 7.00.
`COc1cc(-n2cnc(Nc3nc(N4CCC[C@H]4CO)nc4c3cnn4[C@H]3CC[C@@H](O)CC3)c2)cc(OC)c1OC` [Compound 457c, (cis)-4-(6-((S)-2-(hydroxymethyl)pyrrolidin-1-yl)-4-((1-(3,4,5-trimethoxyphenyl)-1H-imidazol-4-yl)amino)-1H-pyrazolo[3,4-d]pyrimidin-1-yl)cyclohexanol] was tested, and the pIC50 was > 7.00.
In the case of `CCn1nc(C)c2c(N3CCC[C@H]3CO)nc(Nc3cn(-c4cc(OC)c(OC)c(OC)c4)cn3)nc21` [Compound 458c, (S)-(1-(1-ethyl-3-methyl-6-((1-(3,4,5-trimethoxyphenyl)-1H-imidazol-4-yl)amino)-1H-pyrazolo[3,4-d]pyrimidin-4-yl)pyrrolidin-2-yl)methanol], the pIC50 was > 7.00.
For `COc1cc(-n2cnc(Nc3nc(N4CCC[C@H]4CO)c4c(C)nn(C5CC(F)(F)C5)c4n3)c2)cc(OC)c1OC` [Compound 459c, (S)-(1-(1-(3,3-difluorocyclobutyl)-3-methyl-6-((1-(3,4,5-trimethoxyphenyl)-1H-imidazol-4-yl)amino)-1H-pyrazolo[3,4-d]pyrimidin-4-yl)pyrrolidin-2-yl)methanol], the pIC50 was > 7.00.
With `COc1cc(-n2cnc(Nc3nc(N4CCC[C@@H]4CO)c4c(C)nn(C5CCC5)c4n3)c2)cc(OC)c1OC` [Compound 460d, (R)-(1-(1-cyclobutyl-3-methyl-6-((1-(3,4,5-trimethoxyphenyl)-1H-imidazol-4-yl)amino)-1H-pyrazolo[3,4-d]pyrimidin-4-yl)pyrrolidin-2-yl)methanol] the pIC50 was > 7.00.
`COc1cc(-c2cnc(Nc3nc(N4CCC[C@H]4CO)nn4cccc34)s2)cc(OC)c1OC` [Compound 461c, (S)-(1-(4-((5-(3,4,5-trimethoxyphenyl)thiazol-2-yl)amino)pyrrolo[2,1-f][1,2,4]triazin-2-yl)pyrrolidin-2-yl)methanol] was tested, and the pIC50 was > 7.00.
With `COc1cc(-n2cnc(Nc3nc(N4CCC[C@H]4CO)nc4c3ccn4CC3CCCCC3)c2)cc(OC)c1OC` [Compound 462c, (S)-(1-(7-(cyclohexylmethyl)-4-((1-(3,4,5-trimethoxyphenyl)-1H-imidazol-4-yl)amino)-7H-pyrrolo[2,3-d]pyrimidin-2-yl)pyrrolidin-2-yl)methanol] the pIC50 was > 7.00.
In the case of `COc1cc(-n2cnc(Nc3nc(N4CCC[C@H]4CO)c4c(C)nn(CC5CC5)c4n3)c2)cc(OC)c1OC` [Compound 463c, (S)-(1-(1-(cyclopropylmethyl)-3-methyl-6-((1-(3,4,5-trimethoxyphenyl)-1H-imidazol-4-yl)amino)-1H-pyrazolo[3,4-d]pyrimidin-4-yl)pyrrolidin-2-yl)methanol], the pIC50 was > 7.00.
`COc1cc(-n2cnc(Nc3nc(N4CCC[C@H]4CO)c4cnn(C5CCC5)c4n3)c2)cc(OC)c1OC` [Compound 464d, (S)-(1-(1-cyclobutyl-6-((1-(3,4,5-trimethoxyphenyl)-1H-imidazol-4-yl)amino)-1H-pyrazolo[3,4-d]pyrimidin-4-yl)pyrrolidin-2-yl)methanol] was tested, and the pIC50 was > 7.00.
`COc1cc(-n2cnc(Nc3nc(N4CCC[C@H]4CO)c4c(C)nn([C@H]5C[C@H](O)C5)c4n3)c2)cc(OC)c1OC` [Compound 465c, (trans)-3-(4-((S)-2-(hydroxymethyl)pyrrolidin-1-yl)-3-methyl-6-((1-(3,4,5-trimethoxyphenyl)-1H-imidazol-4-yl)amino)-1H-pyrazolo[3,4-d]pyrimidin-1-yl)cyclobutanol] was tested, and the pIC50 was > 7.00.
With `COc1cc(-n2cnc(Nc3nc(N4CCC[C@H]4CO)c4c(C)nn([C@H]5C[C@@H](O)C5)c4n3)c2)cc(OC)c1OC` [Compound 466c, (cis)-3-(4-((S)-2-(hydroxymethyl)pyrrolidin-1-yl)-3-methyl-6-((1-(3,4,5-trimethoxyphenyl)-1H-imidazol-4-yl)amino)-1H-pyrazolo[3,4-d]pyrimidin-1-yl)cyclobutanol] the pIC50 was > 7.00.
`O=C(c1cnc(Nc2nc(N3CCC[C@H]3CO)nn3cccc23)s1)N1CCC[C@H]1CO` [Compound 467c, ((S)-2-(hydroxymethyl)pyrrolidin-1-yl)(2-((2-((S)-2-(hydroxymethyl)pyrrolidin-1-yl)pyrrolo[2,1-f][1,2,4]triazin-4-yl)amino)thiazol-5-yl)methanone] was tested, and the pIC50 was < 6.00.
For `CNC(=O)c1cc(C2CC2)cc(-n2cnc(Nc3nc(N4CCC[C@H]4CO)nn4cccc34)c2)c1` [Compound 468g, (S)-3-cyclopropyl-5-(4-((2-(2-(hydroxymethyl)pyrrolidin-1-yl)pyrrolo[2,1-f][1,2,4]triazin-4-yl)amino)-1H-imidazol-1-yl)-N-methylbenzamide], the pIC50 was < 6.00.
`O=C1OCc2ccc(-n3cnc(Nc4nc(N5CCC[C@H]5CO)nn5cccc45)c3)cc21` [Compound 469g, (S)-6-(4-((2-(2-(hydroxymethyl)pyrrolidin-1-yl)pyrrolo[2,1-f][1,2,4]triazin-4-yl)amino)-1H-imidazol-1-yl)isobenzofuran-1(3H)-one] was tested, and the pIC50 was 6.00 to 7.00.
`OC[C@@H]1CCCN1c1nc(Nc2cn([C@H]3CC[C@H](O)CC3)cn2)c2cccn2n1` [Compound 470e, (trans)-4-(4-((2-((S)-2-(hydroxymethyl)pyrrolidin-1-yl)pyrrolo[2,1-f][1,2,4]triazin-4-yl)amino)-1H-imidazol-1-yl)cyclohexanol] was tested, and the pIC50 was 6.00 to 7.00.
With `OC[C@@H]1CCCN1c1nc(Nc2cn([C@H]3C[C@H](O)C3)cn2)c2cccn2n1` [Compound 471e, (trans)-3-(4-((2-((S)-2-(hydroxymethyl)pyrrolidin-1-yl)pyrrolo[2,1-f][1,2,4]triazin-4-yl)amino)-1H-imidazol-1-yl)cyclobutanol] the pIC50 was > 7.00.
With `COc1cc(-n2cnc(Nc3nc(N4CCC[C@H]4CO)c4ccn(C(C)C)c4n3)c2)cc(OC)c1OC` [Compound 472c, (S)-(1-(7-isopropyl-2-((1-(3,4,5-trimethoxyphenyl)-1H-imidazol-4-yl)amino)-7H-pyrrolo[2,3-d]pyrimidin-4-yl)pyrrolidin-2-yl)methanol] the pIC50 was > 7.00.
For `OC[C@@H]1CCCN1c1nc(Nc2cn([C@H]3CC[C@H](CO)CC3)cn2)c2cccn2n1` [Compound 474e, ((S)-1-(4-((1-((trans)-4-(hydroxymethyl)cyclohexyl)-1H-imidazol-4-yl)amino)pyrrolo[2,1-f][1,2,4]triazin-2-yl)pyrrolidin-2-yl)methanol], the pIC50 was > 7.00.
In the case of `Cc1cc(Cl)cc(-c2cnc(Nc3nc(N4CCC[C@H]4CO)nn4cccc34)s2)c1` [Compound 475c, (S)-(1-(4-((5-(3-chloro-5-methylphenyl)thiazol-2-yl)amino)pyrrolo[2,1-f][1,2,4]triazin-2-yl)pyrrolidin-2-yl)methanol], the pIC50 was < 6.00.
For `COc1cc(-c2cnc(Nc3nc(N4CCC[C@H]4CO)c4cccn4n3)s2)cc(OC)c1OC` [Compound 476a, (S)-(1-(2-((5-(3,4,5-trimethoxyphenyl)thiazol-2-yl)amino)pyrrolo[2,1-f][1,2,4]triazin-4-yl)pyrrolidin-2-yl)methanol], the pIC50 was > 7.00.
For “(R)-(1-(5-((1-(3,4,5-trimethoxyphenyl)-1H-imidazol-4-yl)amino)thiazolo[5,4-d]pyrimidin-7-yl)pyrrolidin-2-yl)methanol [Compound 323b]”, the pIC50 was > 7.00.
